# According to patent publication US12258327B2, “5-membered heteroaryl-containing aminopyridine compounds as EGFR inhibitors” (YUHAN CORPORATION, priority 2021, dated 2025):
# Like-named read-outs stand apart in the source and are kept apart here.
# Assays:
# EGFR del19/C797S = EGFR del19/C797S (Homo sapiens, UniProt P00533, C797S/DEL746-750); test: Biochemical EGFR kinase assay (Lance Ultra TR-FRET), double mutant del19/C797S
# In short: (§1)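 In this biochemical assay, phosphorylation after a one-hour room-temperature reaction was detected with europium-labelled anti-phosphopeptide antibody at 2 nM final concentration.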
# EGFR L858R/C797S = EGFR L858R/C797S (Homo sapiens, UniProt P00533, C797S/L858R); test: Biochemical EGFR kinase assay (Lance Ultra TR-FRET), double mutant L858R/C797S
# EGFR L858R/C797S, sequence (P00533 25-1210 C797S/L858R): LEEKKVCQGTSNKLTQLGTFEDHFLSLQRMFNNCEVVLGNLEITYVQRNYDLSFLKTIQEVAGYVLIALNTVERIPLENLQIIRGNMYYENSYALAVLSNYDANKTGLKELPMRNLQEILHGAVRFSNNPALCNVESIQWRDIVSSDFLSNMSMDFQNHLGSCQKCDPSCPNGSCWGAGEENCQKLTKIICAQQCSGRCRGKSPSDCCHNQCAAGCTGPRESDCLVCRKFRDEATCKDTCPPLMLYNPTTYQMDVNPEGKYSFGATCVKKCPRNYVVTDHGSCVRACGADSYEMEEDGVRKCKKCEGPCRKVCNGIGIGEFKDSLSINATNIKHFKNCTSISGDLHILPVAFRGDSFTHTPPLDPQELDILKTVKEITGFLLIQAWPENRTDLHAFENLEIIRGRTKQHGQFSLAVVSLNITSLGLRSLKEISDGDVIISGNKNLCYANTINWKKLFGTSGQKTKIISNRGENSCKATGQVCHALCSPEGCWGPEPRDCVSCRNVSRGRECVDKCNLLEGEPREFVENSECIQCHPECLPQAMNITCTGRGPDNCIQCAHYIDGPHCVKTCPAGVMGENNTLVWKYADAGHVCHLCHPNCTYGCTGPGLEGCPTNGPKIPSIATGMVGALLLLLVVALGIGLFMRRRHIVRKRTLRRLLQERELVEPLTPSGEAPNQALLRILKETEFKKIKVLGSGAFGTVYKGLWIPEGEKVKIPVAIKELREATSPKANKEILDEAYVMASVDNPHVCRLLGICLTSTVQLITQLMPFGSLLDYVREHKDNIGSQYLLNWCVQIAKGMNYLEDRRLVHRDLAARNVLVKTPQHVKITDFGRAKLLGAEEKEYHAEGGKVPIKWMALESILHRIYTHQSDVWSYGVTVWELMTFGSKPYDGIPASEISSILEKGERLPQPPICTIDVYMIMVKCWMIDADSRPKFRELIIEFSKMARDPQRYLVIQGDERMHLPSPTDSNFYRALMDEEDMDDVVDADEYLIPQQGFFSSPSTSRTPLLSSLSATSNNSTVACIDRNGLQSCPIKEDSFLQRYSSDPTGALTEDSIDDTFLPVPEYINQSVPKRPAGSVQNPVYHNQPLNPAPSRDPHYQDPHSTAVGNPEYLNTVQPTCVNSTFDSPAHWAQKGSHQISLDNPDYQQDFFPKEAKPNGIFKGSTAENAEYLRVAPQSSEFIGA
# In short: as §1
# EGFR L858R/T790M/C797S = EGFR L858R/T790M/C797S (Homo sapiens, UniProt P00533, C797S/L858R/T790M); test: Biochemical EGFR kinase assay (Lance Ultra TR-FRET), triple mutant L858R/T790M/C797S
# In short: as §1
# EGFR del19/T790M/C797S = EGFR del19/T790M/C797S (Homo sapiens, UniProt P00533, C797S/DEL746-750/T790M); test: Biochemical EGFR kinase assay (Lance Ultra TR-FRET), triple mutant del19/T790M/C797S
# EGFR del19/T790M/C797S, sequence (P00533 with tags, fused parts or gaps DEL746-750/T790M/C797S): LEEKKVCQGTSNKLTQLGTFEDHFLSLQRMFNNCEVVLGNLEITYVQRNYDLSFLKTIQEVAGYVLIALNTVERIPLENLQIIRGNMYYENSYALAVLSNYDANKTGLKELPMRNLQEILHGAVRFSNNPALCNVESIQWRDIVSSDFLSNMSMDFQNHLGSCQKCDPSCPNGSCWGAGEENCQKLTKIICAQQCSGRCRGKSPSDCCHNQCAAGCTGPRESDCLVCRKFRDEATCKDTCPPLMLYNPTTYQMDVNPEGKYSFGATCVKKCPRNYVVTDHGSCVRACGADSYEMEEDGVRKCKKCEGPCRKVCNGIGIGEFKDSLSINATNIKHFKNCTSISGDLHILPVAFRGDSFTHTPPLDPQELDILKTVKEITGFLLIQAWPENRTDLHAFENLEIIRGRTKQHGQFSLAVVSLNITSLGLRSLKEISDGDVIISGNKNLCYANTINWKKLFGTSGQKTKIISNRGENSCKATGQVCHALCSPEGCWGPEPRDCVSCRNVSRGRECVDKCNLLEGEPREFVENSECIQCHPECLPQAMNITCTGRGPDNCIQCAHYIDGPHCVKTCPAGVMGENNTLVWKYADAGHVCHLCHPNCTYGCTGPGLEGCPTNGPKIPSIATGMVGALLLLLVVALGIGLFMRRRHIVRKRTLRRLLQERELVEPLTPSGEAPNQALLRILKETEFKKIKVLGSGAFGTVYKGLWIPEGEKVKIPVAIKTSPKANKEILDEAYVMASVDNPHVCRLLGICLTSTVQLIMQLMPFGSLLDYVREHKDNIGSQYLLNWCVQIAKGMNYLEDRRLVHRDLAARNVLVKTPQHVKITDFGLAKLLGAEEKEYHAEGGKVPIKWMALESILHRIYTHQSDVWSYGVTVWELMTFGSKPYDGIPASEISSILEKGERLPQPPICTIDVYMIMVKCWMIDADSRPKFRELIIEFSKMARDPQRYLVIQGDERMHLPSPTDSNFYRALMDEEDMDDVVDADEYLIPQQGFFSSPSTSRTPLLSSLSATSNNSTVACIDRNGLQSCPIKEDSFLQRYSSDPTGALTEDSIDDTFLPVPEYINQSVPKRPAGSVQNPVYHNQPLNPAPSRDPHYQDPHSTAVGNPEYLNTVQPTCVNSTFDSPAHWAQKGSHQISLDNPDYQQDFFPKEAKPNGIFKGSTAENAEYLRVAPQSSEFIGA
# In short: as §1
# EGFR wildtype (WT) = EGFR wildtype (WT) (Homo sapiens, UniProt P00533); test: Biochemical EGFR kinase assay (Lance Ultra TR-FRET), wildtype
# EGFR wildtype (WT), sequence (P00533 25-1210): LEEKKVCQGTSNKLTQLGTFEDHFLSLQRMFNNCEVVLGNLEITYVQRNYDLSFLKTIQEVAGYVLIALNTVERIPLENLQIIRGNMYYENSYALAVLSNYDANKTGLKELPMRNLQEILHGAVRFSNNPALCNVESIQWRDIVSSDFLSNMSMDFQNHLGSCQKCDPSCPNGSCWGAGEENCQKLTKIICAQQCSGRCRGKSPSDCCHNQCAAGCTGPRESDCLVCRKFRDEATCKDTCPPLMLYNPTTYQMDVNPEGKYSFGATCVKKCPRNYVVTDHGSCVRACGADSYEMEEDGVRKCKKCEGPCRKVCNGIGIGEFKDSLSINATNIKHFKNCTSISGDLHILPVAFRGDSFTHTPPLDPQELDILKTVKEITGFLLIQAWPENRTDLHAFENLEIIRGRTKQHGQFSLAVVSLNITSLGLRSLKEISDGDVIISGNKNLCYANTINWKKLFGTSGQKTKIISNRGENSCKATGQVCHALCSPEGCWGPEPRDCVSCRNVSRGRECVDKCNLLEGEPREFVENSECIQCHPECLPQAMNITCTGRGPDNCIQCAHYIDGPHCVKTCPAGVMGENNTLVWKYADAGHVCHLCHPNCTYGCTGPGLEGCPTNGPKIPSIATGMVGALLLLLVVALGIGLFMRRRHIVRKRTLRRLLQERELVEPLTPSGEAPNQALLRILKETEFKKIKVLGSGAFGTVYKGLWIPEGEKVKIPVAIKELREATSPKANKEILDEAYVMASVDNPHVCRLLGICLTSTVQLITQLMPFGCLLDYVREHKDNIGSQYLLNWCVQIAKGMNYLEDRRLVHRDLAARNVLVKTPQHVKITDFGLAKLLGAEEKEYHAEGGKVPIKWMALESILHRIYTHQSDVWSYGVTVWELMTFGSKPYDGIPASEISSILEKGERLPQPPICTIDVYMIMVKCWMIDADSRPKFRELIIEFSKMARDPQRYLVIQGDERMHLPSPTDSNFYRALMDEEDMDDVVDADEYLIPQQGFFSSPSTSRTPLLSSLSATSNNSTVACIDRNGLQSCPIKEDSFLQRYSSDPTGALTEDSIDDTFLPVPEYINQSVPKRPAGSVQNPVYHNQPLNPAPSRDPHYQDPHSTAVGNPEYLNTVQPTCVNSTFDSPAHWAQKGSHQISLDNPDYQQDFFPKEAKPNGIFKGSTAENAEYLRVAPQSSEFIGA
# In short: as §1
# [1] = IC50 del19/C797S (nM) 100 μM ATP, 100 μM ATP
# [2] = Km ATP, read-out: IC50 del19/C797S (nM) Km ATP
# [3] = IC50 L858R/C797S (nM) 100 μM ATP, 100 μM ATP
# [4] = Km ATP, read-out: IC50 L858R/C797S (nM) Km ATP
# [5] = IC50 L858R/T790M/C797S (nM) 100 μM ATP, 100 μM ATP
# [6] = Km ATP, read-out: IC50 L858R/T790M/C797S (nM) Km ATP
# [7] = IC50 del19/T790M/C797S (nM) 100 μM ATP, 100 μM ATP
# [8] = Km ATP, read-out: IC50 del19/T790M/C797S (nM) Km ATP
# [9] = IC50 WT (nM) 100 μM ATP, 100 μM ATP
# [10] = Km ATP, read-out: IC50 WT (nM) Km ATP
# [11] = Km ATP, read-out: IC50 del19/C797S, Km ATP
# [12] = Km ATP, read-out: IC50 L858R/C797S, Km ATP
# [13] = IC50 L858R/T790M/C797S, 100 μM ATP
# [14] = Km ATP, read-out: IC50 L858R/T790M/C797S, Km ATP
# [15] = IC50 del19/T790M/C797S, 100 μM ATP
# [16] = Km ATP, read-out: IC50 del19/T790M/C797S, Km ATP
# [17] = Km ATP, read-out: IC50 WT, Km ATP
# EGFR del19/C797S, sequence (P00533 with tags, fused parts or gaps DEL746-750/C797S): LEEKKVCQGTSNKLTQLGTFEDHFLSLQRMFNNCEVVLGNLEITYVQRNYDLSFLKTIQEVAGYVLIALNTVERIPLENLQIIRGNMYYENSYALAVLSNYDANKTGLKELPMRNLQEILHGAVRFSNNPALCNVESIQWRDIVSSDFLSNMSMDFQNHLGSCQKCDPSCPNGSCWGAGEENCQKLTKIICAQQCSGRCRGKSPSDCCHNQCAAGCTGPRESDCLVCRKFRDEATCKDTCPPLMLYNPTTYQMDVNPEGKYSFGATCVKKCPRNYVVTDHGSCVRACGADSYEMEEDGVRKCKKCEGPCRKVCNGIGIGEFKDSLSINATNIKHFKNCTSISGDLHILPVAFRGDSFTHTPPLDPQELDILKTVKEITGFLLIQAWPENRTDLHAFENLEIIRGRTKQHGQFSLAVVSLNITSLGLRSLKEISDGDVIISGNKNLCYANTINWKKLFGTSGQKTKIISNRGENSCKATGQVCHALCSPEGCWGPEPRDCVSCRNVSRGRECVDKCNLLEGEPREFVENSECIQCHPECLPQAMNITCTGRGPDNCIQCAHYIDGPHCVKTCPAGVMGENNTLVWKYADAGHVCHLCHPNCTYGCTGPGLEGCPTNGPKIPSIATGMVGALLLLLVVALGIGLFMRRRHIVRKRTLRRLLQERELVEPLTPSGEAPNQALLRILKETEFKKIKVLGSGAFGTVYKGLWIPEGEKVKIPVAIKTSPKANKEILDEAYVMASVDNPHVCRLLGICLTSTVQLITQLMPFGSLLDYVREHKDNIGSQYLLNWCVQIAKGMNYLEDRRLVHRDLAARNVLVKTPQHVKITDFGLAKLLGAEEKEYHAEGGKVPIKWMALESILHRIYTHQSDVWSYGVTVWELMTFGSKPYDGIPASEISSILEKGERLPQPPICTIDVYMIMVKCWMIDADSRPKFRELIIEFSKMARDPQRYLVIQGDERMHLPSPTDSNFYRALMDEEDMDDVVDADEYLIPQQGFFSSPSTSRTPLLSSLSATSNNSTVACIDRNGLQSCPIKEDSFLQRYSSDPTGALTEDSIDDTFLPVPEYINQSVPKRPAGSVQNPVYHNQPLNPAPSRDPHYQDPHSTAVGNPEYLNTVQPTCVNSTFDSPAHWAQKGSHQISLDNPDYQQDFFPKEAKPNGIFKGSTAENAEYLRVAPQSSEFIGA
smiles,measurement,setting,value
"CN(C)C(=O)C[C@H]1CC[C@@H](Nc2cc(Nc3ccnc(-c4cnn(S(=O)(=O)C5CC5)c4)n3)ncc2-c2ccn(C(F)F)n2)CC1 [Example 205, 2-((1s,4s)-4-((2-((2-(1-(Cyclopropylsulfonyl)-1H-pyrazol-4-yl)pyrimidin-4-yl)amino)-5-(1-(difluoromethyl)-1H-pyrazol-3-yl)pyridin-4-yl)amino)cyclohexyl)-N,N-dimethylacetamide]",IC50,EGFR del19/C797S; [1],1 nM
same,IC50,EGFR del19/C797S; [2],0.6 nM
same,IC50,EGFR L858R/C797S; [3],10.1 nM
same,IC50,EGFR L858R/C797S; [4],0.4 nM
same,IC50,EGFR L858R/T790M/C797S; [5],0.4 nM
same,IC50,EGFR L858R/T790M/C797S; [6],0.2 nM
same,IC50,EGFR del19/T790M/C797S; [7],0.6 nM
same,IC50,EGFR del19/T790M/C797S; [8],0.3 nM
same,IC50,EGFR wildtype (WT); [9],3960 nM
same,IC50,EGFR wildtype (WT); [10],4.4 nM
"Cn1nc(-c2cnc(Nc3ccnc(-c4cnn(S(=O)(=O)C5CC5)c4)n3)cc2N[C@H]2CC[C@@H](CCO)CC2)cc1C(F)(F)F [Example 262, 2-((1s,4s)-4-((2-((2-(1-(Cyclopropylsulfonyl)-1H-pyrazol-4-yl)pyrimidin-4-yl)amino)-5-(1-methyl-5-(trifluoromethyl)-1H-pyrazol-3-yl)pyridin-4-yl)amino)cyclohexyl)ethan-1-ol]",IC50,EGFR del19/C797S; [1],33.4 nM
same,IC50,EGFR del19/C797S; [2],4.5 nM
same,IC50,EGFR L858R/C797S; [3],5.3 nM
same,IC50,EGFR L858R/C797S; [4],5.7 nM
same,IC50,EGFR L858R/T790M/C797S; [5],7.3 nM
same,IC50,EGFR L858R/T790M/C797S; [6],2.1 nM
same,IC50,EGFR del19/T790M/C797S; [7],6.6 nM
same,IC50,EGFR del19/T790M/C797S; [8],0.1 nM
same,IC50,EGFR wildtype (WT); [9],1880 nM
same,IC50,EGFR wildtype (WT); [10],8.4 nM
"CN(CC(F)F)C(=O)[C@H]1CC[C@@H](Nc2cc(Nc3ccnc(-c4cnn(S(=O)(=O)C5CC5)c4)n3)ncc2-c2ccn(C(F)F)n2)CC1 [Example 204, (1s,4s)-4-((2-((2-(1-(Cyclopropylsulfonyl)-1H-pyrazol-4-yl)pyrimidin-4-yl)amino)-5-(1-(difluoromethyl)-1H-pyrazol-3-yl)pyridin-4-yl)amino)-N-(2,2-difluoroethyl)-N-methylcyclohexane-1-carboxamide]",IC50,EGFR del19/C797S; [1],4 nM
same,IC50,EGFR L858R/C797S; [3],36.1 nM
same,IC50,EGFR L858R/T790M/C797S; [5],0.8 nM
same,IC50,EGFR L858R/T790M/C797S; [6],0.4 nM
same,IC50,EGFR del19/T790M/C797S; [7],0.9 nM
same,IC50,EGFR del19/T790M/C797S; [8],0.9 nM
same,IC50,EGFR wildtype (WT); [9],> 10000 nM
same,IC50,EGFR wildtype (WT); [10],9.5 nM
"CNC1CCC(Nc2cc(Nc3ccnc(-c4cnn(S(=O)(=O)C5CC5)c4)n3)ncc2-c2ccn(C(F)F)n2)CC1 (centres unmarked) [Example 16, N^2-(2-(1-(Cyclopropylsulfonyl)-1H-pyrazol-4-yl)pyrimidin-4-yl)-5-(1-(difluoromethyl)-1H-pyrazol-3-yl)-N^4-((1s,4s)-4-(methylamino)cyclohexyl)pyridine-2,4-diamine]",IC50,EGFR del19/C797S; [1],2 nM
same,IC50,EGFR L858R/C797S; [3],2.1 nM
same,IC50,EGFR L858R/T790M/C797S; [5],0.3 nM
same,IC50,EGFR del19/T790M/C797S; [7],0.3 nM
same,IC50,EGFR wildtype (WT); [9],3390 nM
"CC1(O)CCC(Nc2cc(Nc3ccnc(N4CCC(O)C(F)(F)C4)n3)ncc2-c2ccn(C(F)F)n2)CC1 (centres unmarked) [Example 348, 1-(4-((5-(1-(Difluoromethyl)-1H-pyrazol-3-yl)-4-(((1s,4s)-4-hydroxy-4-methylcyclohexyl)amino)pyridin-2-yl)amino)pyrimidin-2-yl)-3,3-difluoropiperidin-4-ol]",IC50,"EGFR del19/C797S; IC50 del19/C797S, 100 μM ATP",134 nM
same,IC50,EGFR del19/C797S; [11],134 nM
same,IC50,"EGFR L858R/C797S; IC50 L858R/C797S, 100 μM ATP",149 nM
same,IC50,EGFR L858R/C797S; [12],14.6 nM
same,IC50,EGFR L858R/T790M/C797S; [13],0.6 nM
same,IC50,EGFR L858R/T790M/C797S; [14],0.2 nM
same,IC50,EGFR del19/T790M/C797S; [15],3.5 nM
same,IC50,EGFR del19/T790M/C797S; [16],0.5 nM
same,IC50,"EGFR wildtype (WT); IC50 WT, 100 μM ATP",> 10000 nM
same,IC50,EGFR wildtype (WT); [17],145 nM
"CC(C)Nc1cc(Nc2ccnc(-c3cnn(S(=O)(=O)C4CC4)c3)n2)ncc1-c1ccn(CCC(F)(F)F)n1 [Example 304, N^2-(2-(1-(Cyclopropylsulfonyl)-1H-pyrazol-4-yl)pyrimidin-4-yl)-N^4-isopropyl-5-(1-(3,3,3-trifluoropropyl)-1H-pyrazol-3-yl)pyridine-2,4-diamine]",IC50,EGFR del19/C797S; [2],340 nM
same,IC50,EGFR L858R/C797S; [4],0.8 nM
same,IC50,EGFR L858R/T790M/C797S; [6],1.8 nM
same,IC50,EGFR del19/T790M/C797S; [8],1.1 nM
same,IC50,EGFR wildtype (WT); [10],355 nM
"COc1ccc(-c2nccc(Nc3cc(N[C@H]4CC[C@@](C)(O)CC4)c(-c4ccn(C(F)F)n4)cn3)n2)cn1 [Example 165, (1s,4s)-4-((5-(1-(Difluoromethyl)-1H-pyrazol-3-yl)-2-((2-(6-methoxypyridin-3-yl)pyrimidin-4-yl)amino)pyridin-4-yl)amino)-1-methylcyclohexan-1-ol]",IC50,EGFR del19/C797S; [2],1260 nM
same,IC50,EGFR L858R/C797S; [4],884 nM
same,IC50,EGFR L858R/T790M/C797S; [6],2.3 nM
same,IC50,EGFR del19/T790M/C797S; [8],3 nM
same,IC50,EGFR wildtype (WT); [10],6830 nM
"Cn1nc(-c2cnc(Nc3nc(-c4cnn(S(=O)(=O)C5CC5)c4)ncc3F)cc2N[C@H]2CC[C@@](C)(O)CC2)cc1C(F)(F)F [Example 328, (1s,4s)-4-((2-((2-(1-(Cyclopropylsulfonyl)-1H-pyrazol-4-yl)-5-fluoropyrimidin-4-yl)amino)-5-(1-methyl-5-(trifluoromethyl)-1H-pyrazol-3-yl)pyridin-4-yl)amino)-1-methylcyclohexan-1-ol]",IC50,EGFR del19/C797S; [1],11.5 nM
same,IC50,EGFR del19/C797S; [2],9.3 nM
same,IC50,EGFR L858R/C797S; [3],378 nM
same,IC50,EGFR L858R/C797S; [4],19.5 nM
same,IC50,EGFR L858R/T790M/C797S; [5],6.5 nM
same,IC50,EGFR L858R/T790M/C797S; [6],2 nM
same,IC50,EGFR del19/T790M/C797S; [7],8 nM
same,IC50,EGFR del19/T790M/C797S; [8],4.8 nM
same,IC50,EGFR wildtype (WT); [9],> 10000 nM
same,IC50,EGFR wildtype (WT); [10],110 nM
"O=S(=O)(C1CC1)n1cc(-c2nccc(Nc3cc(N[C@H]4CC[C@@H](O)C4)c(-c4ccn(C(F)F)n4)cn3)n2)cn1 [Example 14, (1R,3S)-3-((2-((2-(1-(Cyclopropylsulfonyl)-1H-pyrazol-4-yl)pyrimidin-4-yl)amino)-5-(1-(difluoromethyl)-1H-pyrazol-3-yl)pyridin-4-yl)amino)cyclopentan-1-ol]",IC50,EGFR del19/C797S; [1],4.9 nM
same,IC50,EGFR L858R/C797S; [3],14.2 nM
same,IC50,EGFR L858R/T790M/C797S; [5],0.9 nM
same,IC50,EGFR del19/T790M/C797S; [7],0.6 nM
same,IC50,EGFR wildtype (WT); [9],7510 nM
"C[C@]1(O)CC[C@@H](Nc2cc(Nc3ccnc(-c4cnn(S(=O)(=O)C5CC5)c4)n3)ncc2-n2cccn2)CC1 [Example 376, (1s,4s)-4-((2-((2-(1-(Cyclopropylsulfonyl)-1H-pyrazol-4-yl)pyrimidin-4-yl)amino)-5-(1H-pyrazol-1-yl)pyridin-4-yl)amino)-1-methylcyclohexan-1-ol]",IC50,"EGFR del19/C797S; IC50 del19/C797S, 100 μM ATP",8 nM
same,IC50,EGFR del19/C797S; [11],6 nM
same,IC50,"EGFR L858R/C797S; IC50 L858R/C797S, 100 μM ATP",126 nM
same,IC50,EGFR L858R/C797S; [12],11 nM
same,IC50,EGFR L858R/T790M/C797S; [13],0.9 nM
same,IC50,EGFR L858R/T790M/C797S; [14],0.1 nM
same,IC50,EGFR del19/T790M/C797S; [15],0.4 nM
same,IC50,EGFR del19/T790M/C797S; [16],0.2 nM
same,IC50,"EGFR wildtype (WT); IC50 WT, 100 μM ATP",> 10000 nM
same,IC50,EGFR wildtype (WT); [17],144 nM
"CN(C)CCNC1CCC(Nc2cc(Nc3ccnc(-c4cnn(S(=O)(=O)C5CC5)c4)n3)ncc2-c2csc(C(F)(F)F)n2)CC1 (centres unmarked) [Example 98, N^2-(2-(1-(Cyclopropylsulfonyl)-1H-pyrazol-4-yl)pyrimidin-4-yl)-N^4-(4-((2-(dimethylamino)ethyl)amino)cyclohexyl)-5-(2-(trifluoromethyl)thiazol-4-yl)pyridine-2,4-diamine]",IC50,EGFR del19/C797S; [1],1.9 nM
same,IC50,EGFR L858R/C797S; [3],7.7 nM
same,IC50,EGFR L858R/T790M/C797S; [5],2.7 nM
same,IC50,EGFR del19/T790M/C797S; [7],0.7 nM
same,IC50,EGFR wildtype (WT); [9],1410 nM
"Cc1cc(-c2cnc(Nc3ccnc(-c4cnn(S(=O)(=O)C5CC5)c4)n3)cc2N[C@H]2CC[C@@](C)(O)CC2)nn1C [Example 291, (1s,4s)-4-((2-((2-(1-(Cyclopropylsulfonyl)-1H-pyrazol-4-yl)pyrimidin-4-yl)amino)-5-(1,5-dimethyl-1H-pyrazol-3-yl)pyridin-4-yl)amino)-1-methylcyclohexan-1-ol]",IC50,EGFR del19/C797S; [1],0.6 nM
same,IC50,EGFR del19/C797S; [2],0.2 nM
same,IC50,EGFR L858R/C797S; [4],0.3 nM
same,IC50,EGFR L858R/T790M/C797S; [5],0.3 nM
same,IC50,EGFR L858R/T790M/C797S; [6],0.2 nM
same,IC50,EGFR del19/T790M/C797S; [7],0.4 nM
same,IC50,EGFR del19/T790M/C797S; [8],0.3 nM
same,IC50,EGFR wildtype (WT); [9],941 nM
same,IC50,EGFR wildtype (WT); [10],0.3 nM
